In patent publication US20200291018A1, “TAM KINASE INHIBITORS” (SYROS PHARMACEUTICALS, INC., priority 2017, published 2020):

How the values were obtained:
MERTK = biological target: T1, MERTK (Homo sapiens, UniProt Q12866); assay: TR-FRET kinase activity assay, MERTK; assay type: biochemical; settings: for IC50: TR-FRET activity assay, ATP at Km, 60 minutes, read-out: Mer IC50; for Mer/Flt3 ratio (FLT3 IC50/Mer IC50): ratio calculated as FLT3 IC50/Mer IC50
T1 sequence (Q12866 21-999): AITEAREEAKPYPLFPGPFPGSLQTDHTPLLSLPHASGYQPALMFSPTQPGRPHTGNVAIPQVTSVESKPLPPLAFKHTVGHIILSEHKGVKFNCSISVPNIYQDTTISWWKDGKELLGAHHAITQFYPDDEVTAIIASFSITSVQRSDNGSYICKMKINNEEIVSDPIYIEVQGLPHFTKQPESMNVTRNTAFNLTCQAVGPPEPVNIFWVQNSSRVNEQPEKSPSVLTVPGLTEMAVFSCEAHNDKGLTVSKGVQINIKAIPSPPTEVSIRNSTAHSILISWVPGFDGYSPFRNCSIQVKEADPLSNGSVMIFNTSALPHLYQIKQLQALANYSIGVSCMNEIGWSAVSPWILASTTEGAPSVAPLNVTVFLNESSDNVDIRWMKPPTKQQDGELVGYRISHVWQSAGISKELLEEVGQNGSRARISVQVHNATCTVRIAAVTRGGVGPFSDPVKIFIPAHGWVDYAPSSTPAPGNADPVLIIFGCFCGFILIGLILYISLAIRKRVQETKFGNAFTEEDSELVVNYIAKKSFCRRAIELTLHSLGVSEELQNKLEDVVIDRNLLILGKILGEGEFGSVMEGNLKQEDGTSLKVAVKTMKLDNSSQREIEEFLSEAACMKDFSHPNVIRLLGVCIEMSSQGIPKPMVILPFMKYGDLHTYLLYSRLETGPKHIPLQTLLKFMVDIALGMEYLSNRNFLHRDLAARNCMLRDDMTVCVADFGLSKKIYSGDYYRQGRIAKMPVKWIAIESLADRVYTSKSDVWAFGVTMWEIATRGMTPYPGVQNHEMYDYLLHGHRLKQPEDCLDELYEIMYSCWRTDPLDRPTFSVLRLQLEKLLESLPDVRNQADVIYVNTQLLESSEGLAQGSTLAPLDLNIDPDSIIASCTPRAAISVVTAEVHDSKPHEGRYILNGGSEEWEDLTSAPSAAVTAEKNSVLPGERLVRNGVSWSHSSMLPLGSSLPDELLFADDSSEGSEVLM
Procedure, shortened: (§1)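 IC50 came from TR-FRET signal after 30 min dark development with a Europium-labeled phospho-specific antibody. This followed a 60 min RT reaction, stopped with EDTA, started with ATP at Km per enzyme. Peptide substrate, enzyme and compound were premixed in HEPES pH 7.5 buffer with MgCl2, EGTA, Brij 35 and DTT.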

TYRO3 = biological target: T2, TYRO3 (Homo sapiens, UniProt Q06418); assay: TR-FRET kinase activity assay, TYRO3; assay type: biochemical; settings: ATP at Km, 60 minutes
T2 sequence (Q06418 41-890): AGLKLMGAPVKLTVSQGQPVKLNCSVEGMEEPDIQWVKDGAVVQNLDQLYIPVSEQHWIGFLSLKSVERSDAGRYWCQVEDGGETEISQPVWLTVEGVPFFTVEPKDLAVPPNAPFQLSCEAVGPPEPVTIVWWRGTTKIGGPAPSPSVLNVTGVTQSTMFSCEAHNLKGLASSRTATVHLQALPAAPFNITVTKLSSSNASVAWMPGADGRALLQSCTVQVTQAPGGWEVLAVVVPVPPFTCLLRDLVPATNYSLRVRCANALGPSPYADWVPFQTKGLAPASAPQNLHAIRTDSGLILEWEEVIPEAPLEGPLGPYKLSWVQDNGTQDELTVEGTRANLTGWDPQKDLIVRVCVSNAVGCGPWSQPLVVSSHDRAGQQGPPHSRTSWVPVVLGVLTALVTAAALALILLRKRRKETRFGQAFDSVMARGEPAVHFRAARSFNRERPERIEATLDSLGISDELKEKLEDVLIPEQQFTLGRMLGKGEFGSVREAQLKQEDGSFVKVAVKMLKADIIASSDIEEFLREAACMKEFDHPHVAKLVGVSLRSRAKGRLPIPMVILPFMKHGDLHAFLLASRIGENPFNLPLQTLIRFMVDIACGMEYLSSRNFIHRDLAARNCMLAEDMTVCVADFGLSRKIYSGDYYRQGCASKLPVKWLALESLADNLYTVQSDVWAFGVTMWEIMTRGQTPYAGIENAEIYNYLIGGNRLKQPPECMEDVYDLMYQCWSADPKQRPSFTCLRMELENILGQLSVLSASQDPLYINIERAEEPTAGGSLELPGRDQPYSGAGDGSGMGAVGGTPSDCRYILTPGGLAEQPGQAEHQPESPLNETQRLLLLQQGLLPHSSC
Procedure, shortened: as §1

Structure (SMILES) | IC50 (MERTK) | Mer/Flt3 ratio (FLT3 IC50/Mer IC50) (MERTK) | IC50 (TYRO3)
C[C@@H](CC(F)(F)F)Nc1ncc2c(O[C@@H]3C[C@H]4CC[C@@H](C3)N4[C@H]3CCOC3)ncc([C@H]3CC[C@H](O)CC3)c2n1 [Compound 413] | ≤ 100 nM | +++ (a ratio of >100) | ≤ 100 nM
COCC(=O)N1C(C)(C)CC(Oc2ncc([C@H]3CC[C@H](O)CC3)c3nc(N[C@@H](C)CC(F)(F)F)ncc23)CC1(C)C [Compound 377] | ≤ 100 nM | +++ (a ratio of >100) | 100 to 1000 nM
C[C@@H](CC(F)(F)F)Nc1ncc2c(O[C@H]3C[C@@H](O)C3)ncc([C@H]3CC[C@@](C)(O)CC3)c2n1 [Compound 424] | ≤ 100 nM | +++ (a ratio of >100) | ≤ 100 nM
CO[C@H]1C[C@@H]1Nc1ncc2c(O[C@H]3C[C@@H](O)C3)ncc([C@H]3CC[C@H](O)CC3)c2n1 [Compound 417] | ≤ 100 nM | +++ (a ratio of >100) | ≤ 100 nM
COC[C@H](C)Nc1ncc2c(O[C@H]3CCOC3)ncc([C@H]3CC[C@H](O)CC3)c2n1 [Compound 357] | ≤ 100 nM | +++ (a ratio of >100) | 100 to 1000 nM
C[C@H](Nc1ncc2c(OC3CCOCC3)ncc([C@H]3CC[C@H](O)CC3)c2n1)C(F)F [Compound 365] | ≤ 100 nM | +++ (a ratio of >100) | ≤ 100 nM
NC(=O)c1ccc(Nc2ncc3c(OC4CCOCC4)ncc([C@H]4CC[C@H](O)CC4)c3n2)cc1 [Compound 399] | ≤ 100 nM | NS (a ratio of ≤2.0) | ≤ 100 nM
C[C@@H](CC(F)(F)F)Nc1ncc2c(OC3CCN([C@H]4CCOC4)CC3)ncc([C@H]3CC[C@H](O)CC3)c2n1 [Compound 383] | ≤ 100 nM | +++ (a ratio of >100) | ≤ 100 nM
CCCCNc1ncc2c(OCCOC)ncc([C@H]3CC[C@H](O)CC3)c2n1 [Compound 125] | ≤ 100 nM | NS (a ratio of ≤2.0) | 1000 to 10000 nM
C[C@@H](CC(F)(F)F)Nc1ncc2c(O[C@H]3C[C@H](CN4CCOCC4)C3)ncc([C@H]3CC[C@H](O)CC3)c2n1 [Compound 420] | ≤ 100 nM | +++ (a ratio of >100) | ≤ 100 nM
COC[C@H](C)Nc1ncc2c(O[C@H]3C[C@@H](C(=O)N4CCN(C)CC4)C3)ncc([C@H]3CC[C@H](O)CC3)c2n1 [Compound 393] | ≤ 100 nM | +++ (a ratio of >100) | ≤ 100 nM
COC[C@H](C)Nc1ncc2c(O[C@H]3C[C@@H](O)C3)ncc([C@H]3CC[C@@](C)(O)CC3)c2n1 [Compound 427] | ≤ 100 nM | +++ (a ratio of >100) | ≤ 100 nM
COCCN1C(C)(C)CC(Oc2ncc([C@H]3CC[C@H](O)CC3)c3nc(N[C@@H](C)CF)ncc23)CC1(C)C [Compound 381] | ≤ 100 nM | +++ (a ratio of >100) | ≤ 100 nM
COC[C@H](C)Nc1ncc2c(O[C@@H]3CCN(C)C3)ncc([C@H]3CC[C@H](O)CC3)c2n1 [Compound 366] | ≤ 100 nM | +++ (a ratio of >100) | 100 to 1000 nM
Cc1nccc(N2CCC(Oc3ncc([C@H]4CC[C@H](O)CC4)c4nc(N[C@@H](C)CC(F)(F)F)ncc34)CC2)n1 [Compound 375] | ≤ 100 nM | +++ (a ratio of >100) | ≤ 100 nM
C[C@@H](CC(F)F)Nc1ncc2c(O[C@H]3C[C@@H](O)C3)ncc([C@H]3CC[C@H](O)CC3)c2n1 [Compound 428] | ≤ 100 nM | +++ (a ratio of >100) | ≤ 100 nM
CCCCNc1ncc2c(NC3CCOCC3)ncc([C@H]3CC[C@H](O)CC3)c2n1 [Compound 124] | ≤ 100 nM | + (a ratio of >2.0 and <10) | ≤ 100 nM
